According to US20240002459A1, “Granulin Compositions and Uses Related Thereto” (Emory University, priority 2016, published 2024):
One block for each molecule: values may come before it. Where a SMILES comes first, the peptide text is derived from it. Where no end group is shown, it is not given here. [ ]: non-standard residue; d: D form. The star is where a group is joined. Nle = CCCC[C@H](N)C(=O)O; Cbz = O=C(OCc1ccccc1)*

Columns and labels:
[1] = tested on: processing of PGRN into GRNs; assay: Protease inhibitor panel, PGRN/GRN levels by immunoblot; format: cell-based, human; conditions: HAP1 WT cells, 24 hrs
Description: (§1) Asterisks (*) denote endogenous, intermediate PGRN cleavage products.
Processing of PGRN into GRNs likely involves one or more lysosomal proteases. To narrow down which class of proteases may be responsible for intracellular PGRN metabolism, HAP1 WT cells were treated with a panel of protease inhibitors and measured PGRN/GRN levels by immunoblot. […] One potential candidate lysosomal cysteine protease is cathepsin L, which was reported to cleave mouse PGRN in vitro.

[2] = tested on: processing of PGRN into GRNs; assay: Pan-lysosomal inhibitor treatment, PGRN/GRN levels by ELISA and immunoblot; format: cell-based, human; conditions: HAP1 WT cells, 24 hrs, CQ 50 μM, BafA1 50 nM, ConA 50 nM; for secreted PGRN: conditioned media ELISA; for GRN levels / intracellular PGRN: immunoblot
Description: HAP1 WT cells were treated for 24 hrs with the pan-lysosome inhibitors chloroquine (CQ; 50 μM), bafilomycin A1 (BafA1; 50 nM), or concanamycin A (ConA; 50 nM) and conditioned media was analyzed for secreted PGRN by ELISA.
as §1
Because rapid processing of endocytosed PGRN into GRNs was observed, inhibiting lysosome function could impair GRN production. To determine the effect of pharmacologic lysosome inhibition on GRN levels, HAP1 WT cells were treated with the pan-lysosomal inhibitors chloroquine, bafilomycin A1, or concanamycin A1 for 24 hours and monitored PGRN/GRN levels by immunoblot. These compounds act as lysosome alkalizing agents or inhibitors of the vacuolar-type H+-ATPase (V-ATPase), which is needed for proper lysosome acidification and function. Further, these compounds increase intracellular and secreted PGRN.

[3] = tested on: processing of PGRN into GRNs; assay: Cathepsin L inhibitor II treatment, PGRN/GRN levels by immunoblot; format: cell-based, human; conditions: HAP1 WT cells, increasing concentrations, 40 hrs
Excerpt: as §1

[4] = at 25° C.; cited from earlier work
[5] = tested on: Grn KO MEF cells; assay: Rescue of cathepsin-D (CTSD) phenotype in Grn KO MEFs by exogenous protein; format: cell-based, mouse; conditions: PGRN 10 μg/mL or GRN-2 proteins 25 μg/mL, 120 hrs, immunoblot
[6] = tested on: PGRN KO mouse embryonic fibroblasts (MEFs); assay: Uptake of recombinant PGRN and generation of GRNs in PGRN KO MEFs; format: cell-based; conditions: 5 or 10 μg/mL, immunoblot
Description: PGRN KO MEF cells were treated with recombinant human PGRN (5 or 10 μg/mL) or recombinant mouse PGRN (5 μg/mL) in the media for 24 hrs and lysates were analyzed for PGRN (R&D AF2420) and GRN (Sigma) by immunoblot.
Because this study focused on screening and validating human specific PGRN antibodies, antibodies to detect endogenous mouse GRNs have not been identifies. Nevertheless, to determine if mouse cells are able to process human PGRN into mature GRNs, primary PGRN KO mouse embryonic fibroblasts (MEFs) were treated with recombinant human or mouse PGRN for […]. PGRN/GRN levels were measured in the lysates by immunoblot. […] Next, experiments were performed to determine if human PGRN would be processed into GRNs in mouse brain. Somatic brain transgenesis (SBT) were performed by injecting rAAV2/1 encoding eGFP or human N-TAP PGRN into the cerebral ventricles of newborn (PO) PGRN KO mice. The SBT paradigm leads to transgene expression that is almost exclusively neuronal as assessed by predominant co-localization between eGFP or PGRN (V5) and the neuronal marker NeuN at 3 months of age.

[7] = target: C-TAP PGRN (UniProt P28799)
[8] = target: cathepsin L (Homo sapiens, UniProt P07711); assay: In vitro cleavage of PGRN by recombinant cathepsin L; format: biochemical
Sequence of cathepsin L (P07711 114-333, species assumed): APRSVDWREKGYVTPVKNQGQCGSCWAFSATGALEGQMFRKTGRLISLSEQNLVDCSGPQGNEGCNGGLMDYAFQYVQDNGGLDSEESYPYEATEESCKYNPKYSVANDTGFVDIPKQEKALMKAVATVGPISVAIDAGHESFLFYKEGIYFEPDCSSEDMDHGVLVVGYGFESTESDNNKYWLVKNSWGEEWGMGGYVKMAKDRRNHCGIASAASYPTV

[9] = tested on: HAP1 PGRN KO cells; assay: Uptake and processing of C-TAP or N-TAP PGRN into GRNs (immunoblot); format: cell-based, human; conditions: 5 μg/mL, 24 hrs, compared to N-TAP PGRN
Description: HAP1 PGRN KO cells were treated with C-TAP PGRN or N-TAP PGRN (5 μg/mL) for 24 hrs and […] lysates were analyzed for PGRN and GRN by immunoblot.
PGRN levels have been linked to expression of several genes including SORT1, encoding the membrane receptor sortilin, and TMEM106B, encoding the transmembrane protein 106B (TMEM106B). Thus, altered expression of these proteins could affect the production of intracellular GRNs as well. To address this, experiments were performed to determine if expression of sortilin, which facilitates endocytosis and trafficking of PGRN to the lysosome, influences GRN levels. PGRN KO cells were treated with PGRN tagged at either the C-terminus (C-TAP), which disrupts sortilin binding or the N-terminus (N-TAP), which preserves sortilin binding, and measured intracellular PGRN and GRN by immunoblot. […] Next, HAP1 SORT1 KO cells were generated using CRISPR/Cas9 technology. […] Thus, disruption of the SORT1/PGRN axis alters intracellular PGRN trafficking and leads to decreased GRN production.

Molecule: CCCC[C@@H](C=O)NC(=O)[C@H](CC(C)C)NC(=O)[C@H](CC(C)C)NC(C)=O [ALLN] (Ac-Leu-Leu-[Nle]-aldehyde)
GRN levels compared to vehicle treated control [1]: reduced GRN levels

Molecule: CC(NC(=O)[C@H](Cc1ccccc1)NC(=O)OCc1ccccc1)C(=O)CF (stereo partly drawn) [Z-FA-fmk]
GRN levels compared to vehicle treated control [1]: reduced GRN levels

Molecule: CO/C1=C\C(C)=C\[C@@H](C)[C@@H](O)[C@@H](C)C/C(C)=C/C=C/[C@H](OC)[C@@H]([C@@H](C)[C@@H](O)[C@H](C)[C@@]2(O)C[C@@H](O)[C@H](C)[C@@H](C(C)C)O2)OC1=O [bafilomycin A1]
secreted PGRN [2]: significantly increased | GRN levels [2]: significantly decreased | intracellular PGRN [2]: significantly increased

Molecule: O=C[C@H](Cc1ccc(O)cc1)NC(=O)[C@H](Cc1ccccc1)NC(=O)OCc1ccccc1 [cathepsin L inhibitor II, Z-FY-CHO] (Cbz-Phe-Tyr-aldehyde)
endogenous PGRN [3]: modestly increased | production of GRN [3]: significantly decreasing

Molecule: CCN(CC)CCCC(C)Nc1ccnc2cc(Cl)ccc12 (stereo not drawn) [chloroquine]
secreted PGRN [2]: significantly increased | GRN levels [2]: significantly decreased | intracellular PGRN [2]: significantly increased

Molecule: C/C=C/[C@H]1O[C@@](O)([C@@H](C)[C@H](O)[C@H](C)[C@H]2OC(=O)/C(OC)=C/C(C)=C/[C@@H](C)[C@@H](O)[C@@H](CC)[C@@H](O)[C@H](C)C/C(C)=C/C=C/[C@@H]2OC)C[C@@H](O[C@H]2C[C@@H](O)[C@H](OC(N)=O)[C@@H](C)O2)[C@@H]1C [concanamycin A1, concanamycin A]
secreted PGRN [2]: significantly increased | GRN levels [2]: significantly decreased | intracellular PGRN [2]: significantly increased

Molecule: CC(=O)N[C@@H](CC(C)C)C(=O)N[C@@H](CC(C)C)C(=O)N[C@H](C=O)CCCNC(=N)N [leupeptin]
GRN levels compared to vehicle treated control [1]: reduced GRN levels

Molecule: CCCCCCCC [octane]
percent solubility in water by weight [4]: 0.63×10^−4 % w/w

Molecule: GRN-2: recombinant human granulin-2 protein, SEQ ID NO: 21, with twin Strep-tag (AIQCPDSQFECPDFSTCCVMVDGSWGCCPMPQASCCEDRVHCCPHGAFCDLVHTRCIT; cysteine pairing not given here; also: twin Strep-tag (position not given here))
CTSD phenotype (total mature CTSD levels) [5]: rescues the CTSD phenotype

Molecule: N-TAP PGRN: full-length human PGRN with twin Strep tag and V5 epitope after the signal sequence; preserves sortilin binding
endocytosis of PGRN and generation of mature human GRNs [6]: equally well

Molecule: recombinant cathepsin L
in vitro cleavage of PGRN (immunoblot) [7]: Incubation of cathepsin L and recombinant human PGRN lead to the time-dependent decrease of full-length PGRN and a corresponding increase of GRN protein

full-length PGRN on incubation with cathepsin L ([8]; with corresponding increase of GRN protein): time-dependent decrease
Molecule: recombinant human PGRN: recombinant full-length human progranulin protein (C-TAP PGRN in the cathepsin L cleavage)
GRNs generated by in vitro cleavage with cathepsin L ([8]; 2 hrs, immunoblot): generated multiple, mature GRNs including GRN-2, -3, and -4 | endocytosis of PGRN and generation of mature human GRNs [6]: efficiently endocytosed | CTSD phenotype (total mature CTSD levels) [5]: can be rescued

B1: C-TAP PGRN: full-length human PGRN with C-terminal twin-Strep tag followed by FLAG epitope; disrupts sortilin binding (protein)
chain: TRCPDGQFCPVACCLDPGGASYSCCRPLLDKWPTTLSRHLGGPCQVDAHCSAGHSCIFTVSGTSSCCPFPEAVACGDGHHCCPRGFHCSADGRSCFQRSGNNSVGAIQCPDSQFECPDFSTCCVMVDGSWGCCPMPQASCCEDRVHCCPHGAFCDLVHTRCITPTGTHPLAKKLPAQRTNRAVALSSSVMCPDARSRCPDGSTCCELPSGKYGCCPMPNATCCSDHLHCCPQDTVCDLIQSKCLSKENATTDLLTKLPAHTVGDVKCDMEVSCPDGYTCCRLQSGAWGCCPFTQAVCCEDHIHCCPAGFTCDTQKGTCEQGPHQVPWMEKAPAHLSLPDPQALKRDVPCDNVSSCPSSDTCCQLTSGEWGCCPIPEAVCCSDHQHCCPQGYTCVAEGQCQRGSEIVAGLEKMPARRASLSHPRDIGCDQHTSCPVGQTCCPSLGGSWACCQLPHAVCCEDRQHCCPAGYTCNVKARSCEKEVVSAQPATFLARSPHVGVKDVECGEGHFCHDNQTCCRDNRQGWACCPYRQGVCCADRRHCCPAGFRCAARGTKCLRREAPRWDAPLRDPALRQLL
modifications: left off: small tags and cut ends
endocytosis and processing into GRNs [9]: not efficiently endocytosed and processed into GRNs | endocytosis of PGRN and generation of mature human GRNs [6]: equally well
